The values below come from PubChem BioAssay AID1959 (Broad Institute, 2009).

Active and inactive are the calls of the source.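 How the source made its calls: active means growth-inhibition EC50 no more than tenfold above the top tested dose; inconclusive means flat fit between 30% and 70% inhibition, or unreliable fit; inactive means EC50 more than tenfold above the top tested dose.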

This test concerns E. coli NEB5alpha growth, BacTiter-Glo luminescence, 4 h. Kind of test: antibacterial activity against E. coli NEB5alpha – luminescence, counter-screen for MEX-5/POS-1 RNA-binding inhibitor project, dose response (AID 1959).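 Further: pUC19-transformed ampicillin-resistant cells grown in LB with ampicillin.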
One may read the EC50 as the concentration at which the effect is half-maximal. With `S=c1[nH]c2ccccc2n2c(=S)[nH]nc12`, the EC50 is > 11 µM (inactive).
With `Cc1ccc2oc(=O)c(/C=C(\O)CC(C)C)nc2c1`, the EC50 is > 11 µM (inactive).
As to `O=C(O)c1ccc(-n2cccc2)cc1O`, the EC50 is > 11 µM (inactive).
`CCOc1ccccc1-n1c(O)c(C=Nc2ccc(N(CC)CC)cc2)c(=O)[nH]c1=O`: the EC50 is > 11 µM (inactive).
In the case of `COc1ccc(CCC(=O)Nc2cccc(Cl)c2)cc1`, the EC50 is > 11 µM (inactive).
The same measure for `Cc1ccc(/C=C2\Oc3c(ccc(O)c3CN3CCN(C)CC3)C2=O)cc1`: > 11 µM (inactive).
Regarding `Nc1c(C(=O)c2ccc(Br)s2)oc2ccccc12`, the EC50 was > 11 µM (inactive).
Take `CCCCn1c(O)c(C(=O)/C=C/c2ccc3c(c2)OCO3)c(=O)[nH]c1=O`: the EC50 is > 11 µM (inactive).
The same measure for `N#CC1=C(N)Oc2ccc3ccc(O)cc3c2C1c1ccsc1` (stereo not given): > 11 µM (inactive); for `CCCNC(=O)c1ccc2c(=O)c(O)c(-c3cccc(Br)c3)[nH]c2c1`: > 11 µM (inactive); for `N#Cc1c(-c2ccccc2Cl)c2c([nH]c1=O)-c1ccccc1OC2`: > 11 µM (inactive).
Regarding `O=C1CCC/C1=c1\s/c(=C\c2cccnc2)c(=O)n1-c1ccccc1`, the EC50 is > 11 µM (inactive).
For the compound `O=C(N/N=C/c1cccnc1)c1cc(O)c(O)c(O)c1`, the EC50 was > 11 µM (inactive).
In the case of `Oc1ccc(C[C@H]2NCCc3cc(O)c(O)cc32)cc1O`, the EC50 was > 11 µM (inactive).
`CCOc1cc(/C=C(\C#N)c2nc3ccccc3[nH]2)ccc1OC(C)C(=O)O` (stereo not given): the EC50 was > 11 µM (inactive).
As for `COc1ccc(N2C(=O)NC(=O)/C(=C\c3cn(C)c4ccccc34)C2=O)cc1`, the figure is > 11 µM (inactive); as for `Cc1ccc(N2C(=O)/C(=C/c3ccc(CN(CCC#N)S(C)(=O)=O)o3)C(=O)NC2=S)cc1`, > 11 µM (inactive).
For `Cc1ccc(NC(=O)Cn2c(=O)c(C)nc3ccccc32)cc1`, the EC50 was > 11 µM (inactive).
For `CCN(CC)C(=O)c1ccc2c(c1)C1C=CCC1C(C(=O)O)N2` (stereo not given), the EC50 is > 11 µM (inactive).
With `O=S(=O)(Nc1cc(Sc2cccc3cccnc23)c(O)c2ccccc12)c1ccc(F)cc1`, the EC50 is > 11 µM (inactive).
`COC(=O)CCC(=O)OC1(C)C(=O)C=C2C=C(C3CC3)OC=C2C1=O` (stereo not given): the EC50 was > 11 µM (inactive).
As for `COc1ccc(C(=O)NNC(=O)c2cnccn2)cc1[N+](=O)[O-]`, the figure is > 11 µM (inactive).
Turning to `C=CCn1c(=O)/c(=C\c2ccsc2)s/c1=C(/C#N)C(=O)NCCN1CCOCC1`, the EC50 was > 11 µM (inactive).
As to `CCCn1c(O)c(CN2CCCCC2)c(C)c(C#N)c1=O`, the EC50 was > 11 µM (inactive).
For `COC(=O)Cn1cc(C=C2C(=O)NC(=O)NC2=O)c2ccccc21`, the EC50 was > 11 µM (inactive).
Consider `COC(=O)CCCC1=CC2=CC(=O)C(C)(O)C(=O)C2=CO1` (stereo not given), for which the EC50 is > 11 µM (inactive).
Regarding `CN1C(=O)NC(=O)/C(=C\c2ccc([N+](=O)[O-])o2)C1=O`, the EC50 was > 11 µM (inactive).
For the compound `Cc1ccc2c(c1)C1C=CCC1C(C(=O)NCCCN1CCOCC1)N2` (stereo not given), the EC50 is > 11 µM (inactive).
Take `Cc1ccc(CNC(=O)/C(C#N)=C\c2ccc(N(C)C)cc2)cc1`: the EC50 was > 11 µM (inactive).
For `Cc1cc(/C=N/n2cnnc2)c(C)n1-c1cccc(C(=O)O)c1`, the EC50 was > 11 µM (inactive).
On to `CN1CCc2c(sc(NC(=O)c3ccc4ccccc4c3)c2C(N)=O)C1`, for which the EC50 is > 11 µM (inactive).
The same measure for `Fc1ccc(CNc2nc(-c3ccccc3)nc3ccccc23)cc1`: > 11 µM (inactive).
In the case of `O=C1c2ccccc2S(=O)(=O)c2cc(N3CCC(C(=O)N4CCCCC4)CC3)ccc21`, the EC50 was > 11 µM (inactive).
Consider `O=C(O)c1cc(O)c2c(c1)C(=O)c1cccc(O)c1C2=O`, for which the EC50 was > 11 µM (inactive).
As to `COc1ccc(NS(=O)(=O)c2ccc3c(c2)[C@H]2C=CC[C@H]2[C@@H](c2ccc(C(=O)O)cc2)N3)cc1`, the EC50 was > 11 µM (inactive).
Regarding `O=C(c1ccc(Br)o1)N1CCN=C1SCc1cccc(F)c1`, the EC50 is > 11 µM (inactive).
The same measure for `CCc1ccccc1N1C(=O)/C(=C/c2ccc(N3CCN(C)CC3)o2)C(=O)NC1=S`: > 11 µM (inactive); for `O=C(C1=NN(c2ccccc2)C2C(=O)N(c3ccccc3Cl)C(=O)C12)c1ccccc1` (stereo not given): > 11 µM (inactive); for `Cc1nc(S/C(C(=O)O)=C2/C(=O)Nc3ccccc32)n[nH]1`: > 11 µM (inactive).
For `COc1ccc(/C=C/C(=O)c2c(O)n(CCC3=CCCCC3)c(=O)[nH]c2=O)cc1OC`, the EC50 was > 11 µM (inactive).
For the compound `Cc1cc(/C=C2\C(=O)NC(=O)N(c3ccc(F)cc3)C2=O)c(C)n1-c1ccc(C(=O)O)cc1`, the EC50 was > 11 µM (inactive).
As to `COc1ccc(CCn2c(=N)c(C(=O)NC3CCCCC3)cc3c(=O)n4ccccc4nc32)cc1`, the EC50 is > 11 µM (inactive).
For `N#CC1=C(N)OC2=C(C(=O)CC(c3ccccc3)C2)C1c1ccc2c(c1)OCO2` (stereo not given), the EC50 is > 11 µM (inactive).
With `COc1ccc(C(=O)N=c2c(C#N)cc3c(=O)n4cccc(C)c4nc3n2Cc2ccco2)cc1`, the EC50 is > 11 µM (inactive).
As for `CCN1/C(=C2/SC(=S)N(NC(C)=O)C2=O)Sc2ccc(OC)cc21`, the figure is > 11 µM (inactive); as for `O=c1[nH]nc(CNc2ccc(O)cc2)c2ccccc12`, > 11 µM (inactive); as for `Cc1cccn2c(=O)c3cc(C(=O)NCC4CCCO4)c(=N)n(CCc4ccccc4)c3nc12` (stereo not given), > 11 µM (inactive).
`Cc1ccccc1NS(=O)(=O)c1cc(C(=O)N2CCCC2)ccc1C`: the EC50 was > 11 µM (inactive).
Turning to `Cc1c(Cl)cccc1N1C(=O)NC(=O)/C(=C\c2cc(C)n(-c3cccc(C(=O)O)c3C)c2C)C1=O`, the EC50 is > 11 µM (inactive).
`O=C(O)CCc1ccc(-c2ccccc2)n1-c1ccc(C(=O)O)cc1`: the EC50 was > 11 µM (inactive).
As to `CCOc1ccc2ccccc2c1C1NC(=O)N(C)C(C)=C1C(=O)OCCOC` (stereo not given), the EC50 is > 11 µM (inactive).
As for `COc1ccc(/C=N/N=C2/CC(C)(C)Cc3n[nH]c(=O)cc32)cc1`, the figure is > 11 µM (inactive); as for `Cc1cc(C)c[n+](-c2[nH]c(=O)sc2/C=N/NC([S-])=Nc2ccccc2)c1`, > 11 µM (inactive); as for `O=C(/C=C/c1ccc(OCCCF)cc1)Nc1ccnc(-c2cccnc2)n1`, > 11 µM (inactive).
For the compound `Cn1cccc1/C=C1\C(=O)NC(=O)N(Cc2ccco2)C1=O`, the EC50 is > 11 µM (inactive).
Consider `C/C(=N/N=C(\C)c1ccccc1O)c1ccccc1O`, for which the EC50 is > 11 µM (inactive).
Consider `NC(=O)c1sc2nnc(-c3ccccc3)c(-c3ccccc3)c2c1N`, for which the EC50 was > 11 µM (inactive).
As to `CC(C)c1cc(C(N)=O)c(NC(=O)c2cccc(COc3ccc(Br)cc3)c2)s1`, the EC50 was > 11 µM (inactive).
The same measure for `Cc1sc(-n2c(C)cc(C=C3C(=O)NC(=O)NC3=O)c2C)c(C#N)c1C`: > 11 µM (inactive); for `COc1ccc(C2=CC3=CC(=O)C(C)(O)C(=O)C3=CO2)cc1` (stereo not given): > 11 µM (inactive).
As for `CN1CC=C2C(C#N)=C(N)C(C#N)(C#N)C(c3cccc(Cl)c3Cl)C2C1` (stereo not given), the figure is > 11 µM (inactive).
As for `O=C(N/N=C/c1c(O)n(Cc2ccco2)c(=O)[nH]c1=O)c1ccccc1O`, the figure is > 11 µM (inactive); as for `CCOC(=O)C1CCN(C(=O)CCC(=O)NNc2nc3ccccc3c3nc(C)nn23)CC1`, > 11 µM (inactive); as for `Cc1ccc(/C=C2/C(=O)NC(=O)N(CCc3ccc(F)cc3)C2=O)o1`, > 11 µM (inactive).
In the case of `COc1ccc(N2C(=O)NC(=O)/C(=C/c3ccc([N+](=O)[O-])s3)C2=O)cc1`, the EC50 was > 11 µM (inactive).
Regarding `COc1cccc(NS(=O)(=O)c2ccc3c(c2)C2C=CCC2C(c2ccc(C(=O)O)cc2)N3)c1` (stereo not given), the EC50 is > 11 µM (inactive).
As for `COc1cccc(/C=N/NC(=O)c2ccc(=O)[nH]n2)c1O`, the figure is > 11 µM (inactive).
In the case of `COc1ccc(/C=C2\SC(=S)N(CCCC(=O)NC3CCCC3)C2=O)cc1OC`, the EC50 is > 11 µM (inactive).
As for `O=C1CCCC2=C1Sc1ccc(Cl)cc1N2`, the figure is > 11 µM (inactive).
For `Nc1nnc(C(=O)c2ccccc2N)s1`, the EC50 was > 11 µM (inactive).
As for `O=c1[nH]c(=O)n(-c2ccc(F)cc2)c(O)c1/C=C1\C=Nc2ccccc21`, the figure is > 11 µM (inactive); as for `CCC(=NCCCN(C)C)c1c(O)n(-c2ccc(OC)cc2)c(=O)[nH]c1=O`, > 11 µM (inactive); as for `CN(C)c1ccc2nc3ccc(=[N+](C)C)cc-3sc2c1`, > 11 µM (inactive).
As for `CC(=O)c1sc2nc(-c3cccs3)cc(C(F)(F)F)c2c1N`, the figure is > 11 µM (inactive).
As for `Cc1nc(N=Nc2ccc(O)cc2)n[nH]1`, the figure is > 11 µM (inactive).
Regarding `COC(=O)C1CSc2[nH]c(=O)sc2C1c1ccc(OC)c(OC)c1` (stereo not given), the EC50 is > 11 µM (inactive).
With `N#CC1=C(N)OC2=C(C(=O)CCC2)C1c1ccc2c(c1)OCO2` (stereo not given), the EC50 was > 11 µM (inactive).
As for `COc1cccc(/C=N/Nc2ncnc(N)c2[N+](=O)[O-])c1OC`, the figure is > 11 µM (inactive).
In the case of `COc1ccc(CNC(=O)COC(=O)c2cc(-c3ccc(Cl)s3)nc3ccccc23)cc1`, the EC50 was > 11 µM (inactive).
Take `O=c1c(O)cccc2cc(O)c(O)c(O)c12`: the EC50 was > 11 µM (inactive).
Consider `CC(C)Cc1nnc(NC(=O)CCC(=O)N2CC(C)CC(C)C2)s1` (stereo not given), for which the EC50 was > 11 µM (inactive).
Take `CCCCOC(=O)Cn1c2ccc(OC)cc2c2nc3ccccc3nc21`: the EC50 is > 11 µM (inactive).
As to `Cc1cccc(N=Nc2c(O)[nH]c3ccc(Br)cc23)c1`, the EC50 was > 11 µM (inactive).
Consider `CCC(=S)/C=C1\Sc2ccc3ccccc3c2N1CCCS(=O)(=O)O`, for which the EC50 was > 11 µM (inactive).
In the case of `Cc1c(C=N)c(O)n(C)c(=O)c1C#N`, the EC50 was > 11 µM (inactive).
